Assay results: PubChem BioAssay (NCI)
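How tested: cells in 96-well plates exposed to compound for 48 hours at five concentrations. TGI: total growth inhibition.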

Experiments:
Experiment in all cases: DTP human tumour cell line panel, 48 h
A549 NSCLC = test system: A549 NSCLC
CAKI-1 renal = test system: CAKI-1 renal
CCRF-CEM leukemia = test system: CCRF-CEM leukemia
HCC-2998 colon = test system: HCC-2998 colon
HCT-15 colon = test system: HCT-15 colon
HS 578T breast = test system: HS 578T breast
K-562 leukemia = test system: K-562 leukemia
MALME-3M melanoma = test system: MALME-3M melanoma
MDA-MB-231 breast = test system: MDA-MB-231 breast
NCI-H226 lung = test system: NCI-H226 lung
NCI-H460 lung = test system: NCI-H460 lung
PC-3 prostate = test system: PC-3 prostate
SF-268 CNS = test system: SF-268 CNS
SF-295 CNS = test system: SF-295 CNS
SNB-19 CNS = test system: SNB-19 CNS
SNB-75 CNS = test system: SNB-75 CNS
SR leukemia = test system: SR leukemia
UACC-257 melanoma = test system: UACC-257 melanoma
UACC-62 melanoma = test system: UACC-62 melanoma
UO-31 renal = test system: UO-31 renal

SMILES	TGI (A549 NSCLC) [µM]	TGI (CAKI-1 renal) [µM]	TGI (CCRF-CEM leukemia) [µM]	TGI (HCC-2998 colon) [µM]	TGI (HCT-15 colon) [µM]	TGI (HS 578T breast) [µM]	TGI (K-562 leukemia) [µM]	TGI (MALME-3M melanoma) [µM]	TGI (MDA-MB-231 breast) [µM]	TGI (NCI-H226 lung) [µM]	TGI (NCI-H460 lung) [µM]	TGI (PC-3 prostate) [µM]	TGI (SF-268 CNS) [µM]	TGI (SF-295 CNS) [µM]	TGI (SNB-19 CNS) [µM]	TGI (SNB-75 CNS) [µM]	TGI (SR leukemia) [µM]	TGI (UACC-257 melanoma) [µM]	TGI (UACC-62 melanoma) [µM]	TGI (UO-31 renal) [µM]
NC(N)=NS(=O)(=O)c1ccc(NNc2c3ccccc3nc3c(C(=O)Nc4ccc(S(=O)(=O)N=C(N)N)cc4)cccc23)cc1	> 100	> 100	60.1	> 100	> 100	> 100	63.6	79.1	> 100	> 100	> 100	> 100	> 100	> 100	> 100	> 100	> 100	> 100	> 100	> 100
NC(=O)c1cc2ccc(O)cc2o/c1=N/NC(=O)c1ccccc1	> 100	> 100	> 100	> 100	> 100	> 100	> 100	> 100	> 100	> 100	> 100	> 100	> 100	> 100	> 100	> 100	> 100	> 100	> 100	> 100
O=c1[nH]/c(=C/c2ccc(OCc3ccccc3)cn2)c(=O)[nH]/c1=C/c1ccc(F)cc1	> 50	> 100	> 44.7	> 40.3	> 42.6	15.7	> 36.4	> 51.8	> 51.3	> 44.3	> 34.2	> 45.4	> 40.7	> 27.5	> 34.2	4.73	1.29	58.4	> 50.2	> 60.1
c1ccc(C2=NCCN2)c(C2=NCCN2)c1	> 100	> 100	> 100	> 100	> 100	> 100	> 100	> 100	> 100	> 100	> 100	> 100	> 100	> 100	> 100	> 100	> 100	> 100	> 100	> 100
